# Source: US4322545A, “Benzoic acid esters” (priority 1981, dated 1982)
# Experiments:
# [1] = Ease of emulsification, water content of oil phase by Karl Fisher; type: physicochemical; conditions: 20 ml toluene + 20 ml test solvent + 20 ml water, 40° C., 15 minutes
# Protocol: In this Example, the emulsifying properties of the compositions of the invention were compared to various commonly used solvents and to mixes of benzoates.
# Tests were conducted by adding exactly 20 ml of toluene to 20 ml of the test solvent in a glass stoppered cylinder and shaking to mix. When mixed, 20 ml of water was then added, the resulting mixture warmed to 40° C. and shaken 30 times.
# rats = conditions: Example 13; no source given; cited from earlier work
# skin = conditions: in vivo; cited from earlier work
# [2] = Spreading Coefficient and interfacial tension against water; type: physicochemical
# Source text: The higher the Spreading Coefficient, the greater the spreadability.
# [3] = Greasiness comparison on skin; conditions: 70°-73°F
# Source text: A comparison of the composition of the present invention was undertaken with a single benzoate ester falling within the carbon chain length range encompassed in the mixtures of the invention. […] This ester product is the benzoic acid ester of a mixture of C12, C13, C14 and C15 alcohols corresponding to that contained in the NEODOL 25 alcohol.
# [4] = Cloud point and pour point; type: physicochemical
# Protocol: "Cloud point", refers to the temperature at which a waxy solid material appears as the liquid composition being examined is cooled. Cloud points are also associated with pour points, which is the lowest temperature at which a liquid will flow when a container is inverted. In all cases as the temperature is lowered, the cloud point is detected first, with the pour point being generally 5°-25° F. lower.
# [5] = Gel formation/settling with suspending agents; type: physicochemical
# Source text: Gel formation refers to the ability of an emollient oil to form gels with suspending agents such as quaternized hectorite (such as Bentone 38) or stearalkonium (Bentone 37).
# The viscosity of a gel is dependent on the polarity of the organic liquid it is suspended in. The more polar the liquid, the lower the viscosity. Non-polar or low polarity organic liquids result in higher viscosities. Completely non-polar liquids may present a problem in that too high viscosities results in a low percentage of a gellant. Upon further dilution (as normally occurs in formulation work), the ability to suspend matter can be lost in these instances.
# Desirably, basic gel cocentrates and formulation containing same, should show stability to a wide range of temperatures without phase separation--which would destroy the gel viscosity and suspending capabilities. In addition, the basic function of such gels is to suspend an active material present in a formulation as a particulate matter. In a system such as aerosol antiperspirants, the active is aluminum chlorhydrate present as insoluble particulates, with a particle size ranging from submicron to about 50 microns. Before use, the container is shaken to re-dispense the particulates in suspension as to provide the proper dosage of activities. Re-dispersion should be immediate, complete, and last for a period of time sufficient for proper application. […]
compound,measurement,setting,value
"CCCCCCCCCCCCCCCC(=O)OC(C)C [IPP (isopropyl palmitate), isopropyl palmitate]",% Water in Oil Phase (upper layer; by K-F Method),[1],0.66%
Octyl Isononanoate,% Water in Oil Phase (upper layer; by K-F Method),[1],0.26%
CCCCOC(=O)c1ccccc1 [butyl benzoate],LD50 (comparison ester),rats,3.5 g/kg of body weight
"CCCCCCCCCCCCCC(=O)OC(C)C [IPM (isopropyl myristate), isopropyl myristate]",Skin irritation,skin,suspect as an irritant
same,Spreading Coefficient,[2],17.7 dynes/cm
same,interfacial tension against water,[2]; 25° C.,17. dynes/cm
same,% Water in Oil Phase (upper layer; by K-F Method),[1],0.12%
"CCCCCCCCCCCCCCOC(=O)c1ccccc1 [Myristyl benzoate, myristyl (C14) benzoate]",Physical state at ambient room temperature,[3],virtually a solid
same,Cloud point,[4],21 °C
same,Settling time,[5],60 to 90 s
same,Gel viscosity,[5]; used as the organic liquid for the gel,abnormally high viscosities
